Here are results for six molecules from PMC7766232, “Cyclic RGD and isoDGR Integrin Ligands Containing cis-2-amino-1-cyclopentanecarboxylic (cis-β-ACPC) Scaffolds” (Molecules, 2020).

Read-outs that look alike come from different tables or passages of the source. Starred links: 1 amine or outer side, 2 acyl side, 3 side chain; linkers in the order of their positions; H or OH if unused. Positions of bridges follow the written chain, without caps; N, C: chain ends. Non-standard residues stand in square brackets, D forms with d. Residues, ends and D or L forms follow the SMILES beside them. X1 = O=C([C@@H]1CCC[C@@H]1N[*:1])[*:2]

Experiment [1] deals with T1, purified α5β1 receptor (Homo sapiens, UniProt P05556+P08648). Briefly: Competitive binding assay to purified α5β1 receptor (displacement of biotinylated fibronectin). The conditions noted are these: immobilized integrin α5β1, biotinylated fibronectin 1 μg mL−1; mean ± SD of duplicate determinations. The protocol:
(§1) The cyclic peptidomimetics 8–10 were analyzed in a first instance for their competitive binding to purified αvβ3 and α5β1 receptors with respect to the biotinylated vitronectin or fibronectin, respectively. The IC50 values are collected in Table 1, where the values of Cilengitide (1a), cyclo-[RGDfV] (1b), cyclo-[DKP-RGD] (4), and cyclo-[DKP-isoDGR] (7), measured using the same procedure, are included as reference compounds for the RGD and isoDGR series. The new RGD compounds cyclo-[-Arg-Gly-Asp-(1S,2R)-β-ACPC-Val-] (8) and cyclo-[-Arg-Gly-Asp-(1R,2S)-β-ACPC-Val-] […] (10) is a micromolar binder for both integrins, much weaker than cyclo-[DKP-isoDGR] (7) in the case of αvβ3.
(§2) The inhibition assays of biotinylated vitronectin and fibronectin binding to the αvβ3 and α5β1 receptors, for compounds 8–10 were carried out as previously reported. […] Screening assays were performed by incubating the immobilized integrin αvβ3 or α5β1 with increasing concentrations (10^−12–10^−5 M/10^−11–10^−4 M) of the RGD and isoDGR ligands in the presence of the corresponding biotinylated ECM protein (1 μg mL^−1), and measuring bound protein in the presence of the competitive ligand. Each data point is the result of the average of triplicate wells and was analyzed by nonlinear regression analysis with the GraphPad Prism software. Each experiment was repeated in duplicate. IC50 values are the arithmetic mean ± the standard deviation (SD) of these duplicate determinations.

Experiment [2] deals with T2, purified αvβ3 receptor (Homo sapiens, UniProt P05106+P06756). Briefly: Competitive binding assay to purified αvβ3 receptor (displacement of biotinylated vitronectin). The note with it: for IC50: immobilized integrin αvβ3, biotinylated vitronectin 1 μg mL−1, mean ± SD of duplicate determinations; for selectivity ratio (IC50α5β1/IC50αvβ3): ratio of competitive binding IC50 values, α5β1 over αvβ3. The protocol: as §1, §2

In experiment [3] the target is WM115 cells (Homo sapiens, UniProt P05106+P06756). It counts as cell-based. On the procedure:
WM-115 cells were washed with MEM (Minimum Essential Medium)-buffer, detached with trypsin and resuspended to a cell density of 1 × 10^5 cells/mL. WM-115 cells were then incubated with fluorescein diacetate for 30 min at 37 °C in the dark, washed with MEM medium and resuspended with MEM medium containing CaCl2 and MgCl2 (2 mM) and incubated on ice for 30 min in the dark. […] 0.00195313, 0.00097565, 0.00048828, 0.00024414). Cells and peptide were incubated for 30 min at 37° C in the dark and afterwards added to the 96-well ELISA-plates previously coated with vitronectin and incubated for 1 h at 37 °C in the dark. Unbound cells were aspirated, and bound cells were washed three times with MEM medium and fluorescence measured (λex: 485 nm, λem: 514 nm) with an InfiniteTM 200 Microplate Reader (Tecan, Männedorf, Switzerland). […] The IC50 values were determined four times per peptide in two independent assays here reported, and the final values are the arithmetic mean ± the standard deviation (SD) of the two independent assays. The reference peptide […] was tested together with the peptides.

Experiment [4] addresses T1, purified α5β1 receptor. On the set-up: method as in PMID 23424096, PMID 28934103, PMID 28168158, PMID 31275795. The conditions noted are these: reference compounds, measured using the same procedure; biotinylated fibronectin; mean ± SD; ref [29],[48],[49],[50]; cited from earlier work.
The target of experiment [5] is T2, purified αvβ3 receptor. On the set-up: method as in PMID 23424096, PMID 28934103, PMID 28168158, PMID 31275795. The conditions noted are these: reference compounds, measured using the same procedure; biotinylated vitronectin; mean ± SD; ref [29],[48],[49],[50]; cited from earlier work.
Setting [6] is: read-out: IC50 (50% inhibition of cell adhesion to vitronectin), WM115 cells, fluorescein labeled, mean ± SD of two independent assays.
The mark [7] stands for this setting: read-out: IC50 cell adhesion, 1° Assay, WM-115 cells, vitronectin-coated plates, first independent assay (Figure S4).
Where [8] appears, read: read-out: IC50 cell adhesion, 2° Assay, WM-115 cells, vitronectin-coated plates, second independent assay (Figure S5).

Consider `CC(C)[C@@H]1NC(=O)[C@H]2CCC[C@H]2NC(=O)[C@H](CC(=O)O)NC(=O)CNC(=O)[C@H](CCCNC(=N)N)NC1=O` [Compound 8, cyclo-[-Arg-Gly-Asp-(1S,2R)-β-ACPC-Val-]], for which the IC50 (as a rule, the concentration at which inhibition is half-maximal) is 3.23 ± 1.47 µM in experiment [1]; 0.0443 ± 0.004 µM in experiment [2]; 75 ± 32.5 µM in experiment [3] (setting [6]); 52 µM in experiment [3] (setting [7]); 98 µM in experiment [3] (setting [8]). In experiment [2], the “selectivity ratio (IC50α5β1/IC50αvβ3)” value is reported as approximately 73.

`CC(C)[C@@H]1NC(=O)[C@@H]2CCC[C@@H]2NC(=O)[C@H](CC(=O)O)NC(=O)CNC(=O)[C@H](CCCNC(=N)N)NC1=O` [Compound 9, cyclo-[-Arg-Gly-Asp-(1R,2S)-β-ACPC-Val-]]: the IC50 worked out at 0.468 ± 0.114 µM in experiment [1]; 0.039 ± 0.0011 µM in experiment [2]; 124 µM in experiment [3] (setting [6]); 117 µM in experiment [3] (setting [7]); 132 µM in experiment [3] (setting [8]). Moreover, the “selectivity ratio (IC50α5β1/IC50αvβ3)” value in experiment [2] is listed as “about 12”.

Take `CC(C)[C@@H]1NC(=O)[C@@H]2CCC[C@@H]2NC(=O)[C@H](CCCNC(=N)N)NC(=O)CNC(=O)C[C@@H](C(=O)O)NC1=O` [Compound 10, cyclo-[-isoAsp-Gly-Arg-(1R,2S)-β-ACPC-Val-]] (GR[X1]VD-OH; lactam N-5): the IC50 is 2.33 ± 0.134 µM in experiment [1], 5.36 ± 0.281 µM in experiment [2], more than 300 µM in experiment [3] (setting [7]) and more than 300 µM in experiment [3] (setting [8]). For the same molecule, the “IC50 (50% inhibition of cell adhesion to vitronectin)” value in experiment [3] (WM115 cells, fluorescein labeled, mean ± SD of two independent assays) is given as “could not be measured”.

As for “cyclo-(-DKP-isoAsp-Gly-Arg-) [Compound 7]”, the IC50 in experiment [4] is 1.07 ± 0.228 µM; in experiment [5] it was 0.0092 ± 0.0011 µM.

With cyclo-[-DKP-Arg-Gly-Asp-] [Compound 4], the IC50 in experiment [4] was 0.532 ± 0.035 µM; in experiment [5], 0.0045 ± 0.0011 µM.

In the case of “cyclo[Arg-Gly-Asp-NMe Val-D-Phe] [Compound 1a]”, the IC50 in experiment [5] is 0.00071 ± 6e-05 µM.
